From ChEMBL document CHEMBL1201862, “PubChem BioAssay data set” (2004)
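These data come from cells grown in 96-well plates and exposed to compound for 48 hours at five concentrations. Here, GI50 denotes the concentration required for 50% inhibition of growth.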 The source made the active and inactive calls. No stated cut-off is given here; in the data, active = GI50 up to about 1.1 µM and inactive = higher.

Assays:
Test in all cases: NCI tumour cell line growth inhibition, 48 h
[1] = system: BT-549
[2] = system: HOP-92
[3] = system: M14
[4] = system: MDA-MB-231
[5] = system: Malme-3M
[6] = system: NCI-H460
[7] = system: NCI-H522
[8] = system: OVCAR-3
[9] = system: OVCAR-8
[10] = system: RXF 393
[11] = system: SK-MEL-5
[12] = system: SK-OV-3
[13] = system: SN12C
[14] = system: SR
[15] = system: U-251
[16] = system: UO-31
[17] = system: T47D
[18] = system: TK-10
[19] = system: Hs-578T

SMILES | GI50 [1] | GI50 [2] | GI50 [3] | GI50 [4] | GI50 [5] | GI50 [6] | GI50 [7] | GI50 [8] | GI50 [9] | GI50 [10] | GI50 [11] | GI50 [12] | GI50 [13] | GI50 [14] | GI50 [15] | GI50 [16] | GI50 [17] | GI50 [18] | GI50 [19]
CCOC(=O)C(=[N+]=[N-])C(=O)Nc1nn2nnnc2c2ccccc12 | > 100 µM (inactive) | > 100 µM (inactive) | > 100 µM (inactive) | > 100 µM (inactive) | > 100 µM (inactive) | > 100 µM (inactive) | > 100 µM (inactive) | > 100 µM (inactive) | > 100 µM (inactive) | > 100 µM (inactive) | > 100 µM (inactive) | > 100 µM (inactive) | > 100 µM (inactive) | > 100 µM (inactive) | > 100 µM (inactive) | > 100 µM (inactive) |  |  | 
CN1CCN(c2cc3c(cc2F)c(=O)c(C(=O)O)cn3C2CC2)CC1CC#N (stereo not drawn) | > 100 µM (inactive) |  |  | > 100 µM (inactive) | > 100 µM (inactive) | > 100 µM (inactive) |  | > 100 µM (inactive) | > 100 µM (inactive) | > 100 µM (inactive) | > 100 µM (inactive) | > 100 µM (inactive) | > 100 µM (inactive) | > 100 µM (inactive) | > 100 µM (inactive) | > 100 µM (inactive) | > 100 µM (inactive) | > 100 µM (inactive) | 
CCC1OC2(C)CC(C#N)(C#N)C1(C#N)C(=N)O2 (stereo not drawn) | > 100 µM (inactive) | > 100 µM (inactive) | > 100 µM (inactive) | > 100 µM (inactive) | > 100 µM (inactive) |  |  | > 100 µM (inactive) |  | > 100 µM (inactive) | > 100 µM (inactive) | > 100 µM (inactive) | > 100 µM (inactive) |  | > 100 µM (inactive) | > 100 µM (inactive) | > 100 µM (inactive) | > 100 µM (inactive) | > 100 µM (inactive)
Cc1cc(Cl)ccc1NC(=O)/C(CC(=O)CC(c1ccccc1)c1c(O)c2ccccc2oc1=O)=N\O (stereo not drawn) | > 100 µM (inactive) | 39.2 µM (inactive) | > 100 µM (inactive) | > 100 µM (inactive) |  | > 100 µM (inactive) | > 100 µM (inactive) | > 100 µM (inactive) | > 100 µM (inactive) | > 100 µM (inactive) | > 100 µM (inactive) | > 100 µM (inactive) | > 100 µM (inactive) |  | > 100 µM (inactive) | 65 µM (inactive) |  | > 100 µM (inactive) | > 100 µM (inactive)
O=c1n(CCCN2CCN(c3cccc(Cl)c3)CC2)nc2n1-c1ccc3ccccc3c1SC2 | > 100 µM (inactive) | > 100 µM (inactive) |  |  |  | > 100 µM (inactive) | > 100 µM (inactive) | > 100 µM (inactive) | > 100 µM (inactive) | > 100 µM (inactive) | 6.01 µM (inactive) | > 100 µM (inactive) | > 100 µM (inactive) | > 100 µM (inactive) | > 100 µM (inactive) |  |  | > 100 µM (inactive) | > 100 µM (inactive)
COC(=O)c1ccc(C)cc1/C=C1\Cc2ccc(C)cc2C1=O | 4.91 µM (inactive) | 15.5 µM (inactive) | 16.1 µM (inactive) |  | 10.2 µM (inactive) | 40.2 µM (inactive) | 17.1 µM (inactive) | 6.52 µM (inactive) | 21.2 µM (inactive) | 14.7 µM (inactive) | 13.9 µM (inactive) |  | 16.7 µM (inactive) | 3.9 µM (inactive) | 12.6 µM (inactive) | 11 µM (inactive) | 17.1 µM (inactive) | 21.1 µM (inactive) | 23.1 µM (inactive)
C/C1=C/C(=O)O[C@@H]2C[C@@H](CC[C@H](C)/C=C\C=C\CC1)O[C@@](O)([C@@H]1CSC(=O)N1)C2 [LATRUNCULIN A] | 0.305 µM (active) | 0.116 µM (active) | 0.565 µM (active) | 0.0834 µM (active) | 0.895 µM (active) | 0.8 µM (active) |  | 1.03 µM (active) | 1.41 µM (inactive) | 0.191 µM (active) | 0.444 µM (active) | > 4.16 µM (inactive) | 0.428 µM (active) | 0.653 µM (active) | > 10 µM (inactive) | 0.3 µM (active) |  | 0.264 µM (active) | 0.114 µM (active)
Cc1cc(C)c(N[S+]([O-])c2cccc(C(F)(F)F)c2)c(C)c1 (stereo not drawn) | > 100 µM (inactive) | > 100 µM (inactive) | > 100 µM (inactive) |  | > 100 µM (inactive) | > 100 µM (inactive) |  | > 100 µM (inactive) | > 100 µM (inactive) | > 100 µM (inactive) |  |  | > 100 µM (inactive) | > 100 µM (inactive) | > 100 µM (inactive) | > 100 µM (inactive) | > 100 µM (inactive) | > 100 µM (inactive) | 
O=C(Nc1nc(C23CC4CC(CC(C4)C2)C3)cs1)c1cc2cc([N+](=O)[O-])ccc2oc1=O | 14.3 µM (inactive) | 54.8 µM (inactive) |  | 20.9 µM (inactive) | 46.2 µM (inactive) | 52.6 µM (inactive) | > 100 µM (inactive) | 73.3 µM (inactive) | > 100 µM (inactive) | 19.2 µM (inactive) | 25.6 µM (inactive) |  | > 100 µM (inactive) | 68.4 µM (inactive) | 43 µM (inactive) | > 100 µM (inactive) |  | > 100 µM (inactive) | 20.3 µM (inactive)
O=C(CN1c2ccccc2Sc2ccccc21)n1cnc2ccccc21 | > 100 µM (inactive) | 30.6 µM (inactive) | 59.2 µM (inactive) | 53.2 µM (inactive) | 74.8 µM (inactive) | 97.5 µM (inactive) |  | 62.8 µM (inactive) | 72.6 µM (inactive) | > 100 µM (inactive) | 56.9 µM (inactive) | 47.1 µM (inactive) | > 100 µM (inactive) |  | 43.5 µM (inactive) | 75.9 µM (inactive) | 49.8 µM (inactive) | > 100 µM (inactive) | > 100 µM (inactive)
CC(C)(C)OC(=O)NCCC(N)=S | > 100 µM (inactive) | > 100 µM (inactive) | > 100 µM (inactive) |  | > 100 µM (inactive) | > 100 µM (inactive) |  | > 100 µM (inactive) | > 100 µM (inactive) | > 100 µM (inactive) | > 100 µM (inactive) | > 100 µM (inactive) | > 100 µM (inactive) | > 100 µM (inactive) | > 100 µM (inactive) | > 100 µM (inactive) | > 100 µM (inactive) | > 100 µM (inactive) | > 100 µM (inactive)
CCN(CC)CCC(=O)NC1c2ccc(Cl)cc2Oc2c(C)cccc21 (stereo not drawn) | 13.9 µM (inactive) | 25.8 µM (inactive) | 17.5 µM (inactive) | 20.8 µM (inactive) |  | 16.6 µM (inactive) | 17.1 µM (inactive) | 15.5 µM (inactive) | 16.9 µM (inactive) |  | 13.3 µM (inactive) | 17.6 µM (inactive) | 17.3 µM (inactive) | 18.5 µM (inactive) | > 10 µM (inactive) | 8.89 µM (inactive) | 14 µM (inactive) | 14.6 µM (inactive) | 
Cc1ccc(C2(c3ccc(Cl)cc3)c3ccccc3C3=NCCN32)cc1 (stereo not drawn) | 12.6 µM (inactive) | 6.04 µM (inactive) | 3.7 µM (inactive) | 5.7 µM (inactive) | 3.67 µM (inactive) | 6 µM (inactive) |  | 10.3 µM (inactive) | 14.5 µM (inactive) | 2.31 µM (inactive) | 10.9 µM (inactive) | 6.08 µM (inactive) | 15.1 µM (inactive) |  | 11.5 µM (inactive) | 3.37 µM (inactive) | 15.7 µM (inactive) | 5.43 µM (inactive) | 14.2 µM (inactive)
CCOc1ccc(NC(=O)/C=C/c2ccco2)cc1 | 38 µM (inactive) |  | 58.2 µM (inactive) | > 100 µM (inactive) | > 100 µM (inactive) | 43.8 µM (inactive) | > 100 µM (inactive) | > 10 µM (inactive) | 85.9 µM (inactive) | 67.1 µM (inactive) | 44.3 µM (inactive) | 32.4 µM (inactive) | 79.6 µM (inactive) | 28.8 µM (inactive) | 33.8 µM (inactive) | 87.1 µM (inactive) |  | > 100 µM (inactive) | 65 µM (inactive)
CO/C(=N\N=C\c1cccc(Cl)c1)c1ccncc1 | > 10 µM (inactive) | > 10 µM (inactive) | > 10 µM (inactive) | > 10 µM (inactive) | > 10 µM (inactive) | > 10 µM (inactive) | > 10 µM (inactive) | > 10 µM (inactive) | > 10 µM (inactive) | > 10 µM (inactive) |  |  | > 10 µM (inactive) | > 10 µM (inactive) | > 10 µM (inactive) | > 10 µM (inactive) | > 10 µM (inactive) | > 10 µM (inactive) | 
COc1ccc(O)c(/C=N/CCC/N=C/c2cc(OC)ccc2O)c1 | 23.1 µM (inactive) | 20.2 µM (inactive) | 37.2 µM (inactive) | 31.3 µM (inactive) | 13.7 µM (inactive) | 41.4 µM (inactive) | 46 µM (inactive) | 6.59 µM (inactive) | 15.7 µM (inactive) | 25.6 µM (inactive) |  |  | 30 µM (inactive) | 14 µM (inactive) | 16.7 µM (inactive) | 33.5 µM (inactive) |  | 34.9 µM (inactive) | 24.5 µM (inactive)
CS(=O)(=O)CCC(N)P(=O)(O)O (stereo not drawn) | > 100 µM (inactive) | > 100 µM (inactive) | > 100 µM (inactive) |  | > 100 µM (inactive) | > 100 µM (inactive) | > 100 µM (inactive) | > 100 µM (inactive) | > 100 µM (inactive) |  | > 100 µM (inactive) | > 100 µM (inactive) | > 100 µM (inactive) | > 100 µM (inactive) | > 100 µM (inactive) | > 100 µM (inactive) | > 100 µM (inactive) | > 100 µM (inactive) | > 100 µM (inactive)
